We go through 19 compounds from patent US8148373B2, “Compounds” (AstraZeneca AB, priority 2008, dated 2012).

In general, inhibition refers to the drop in the measured response relative to a control, in per cent. The low end stands for a weak effect, the high end for a strong effect.

The target in experiment [1] is T1, Adrenergic β2 (H292 cells) (Homo sapiens, UniProt P07550).
T1 construct: endogenous in cells; host or cells: H292 cells
As to the kind of experiment: Adrenergic β2 Mediated cAMP Production, single concentration 1 μM. To be noted: percentage of the maximum response generated by 1E-07M formoterol; for activation at 1 µM: NCI-H292, 1 μM compound, read-out: β2 (% effect at 1 μM). The class given is cell-based. An outline of the steps: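 cAMP was quantified by AlphaScreen in lysates of H292 cells and reported as a percentage of the 1E-07M formoterol maximum. Before lysis the cells, seeded the previous day, received rolipram (300 μM final) and then test compound at a final 1 μM in 1% DMSO for 60 min at room temperature.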

The target in experiment [2] is T2, human muscarinic acetylcholine M3 receptor (M3-ACh) (Homo sapiens, UniProt P20309).
T2 construct: expressed in transfected cells; host or cells: CHO-K1 (Chinese Hamster Ovary) cell membranes
T2 sequence (P20309 whole entry): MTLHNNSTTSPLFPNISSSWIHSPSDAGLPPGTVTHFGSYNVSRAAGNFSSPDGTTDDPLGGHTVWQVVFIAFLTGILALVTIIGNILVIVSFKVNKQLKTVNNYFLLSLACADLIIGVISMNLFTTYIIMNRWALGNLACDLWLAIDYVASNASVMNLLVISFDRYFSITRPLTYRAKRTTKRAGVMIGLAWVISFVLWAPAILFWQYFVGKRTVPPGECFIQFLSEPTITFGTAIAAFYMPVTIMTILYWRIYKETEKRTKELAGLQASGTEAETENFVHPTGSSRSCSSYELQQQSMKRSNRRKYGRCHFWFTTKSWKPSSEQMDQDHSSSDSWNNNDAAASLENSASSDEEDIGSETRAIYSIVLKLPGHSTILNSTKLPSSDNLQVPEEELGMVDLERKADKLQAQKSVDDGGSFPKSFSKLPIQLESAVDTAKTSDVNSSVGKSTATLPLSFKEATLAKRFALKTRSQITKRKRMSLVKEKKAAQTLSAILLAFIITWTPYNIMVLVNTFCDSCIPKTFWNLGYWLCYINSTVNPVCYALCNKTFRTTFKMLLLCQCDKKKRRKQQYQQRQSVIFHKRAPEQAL
The experiment can be described thus: Muscarinic 3 Receptor Binding Assay, % inhibition specific binding at 1 μM. Conditions: 1 μM compound, % inhibition specific [3H]-NMS binding. Summed up:
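Value is % inhibition of specific [3H]N-methyl scopolamine binding (0.1 nM, quarter Kd) by 1 μM compound, using SPA beads precoated with human M3-expressing CHO-K1 membranes. Buffer HEPES pH 7.4 with MgCl2 and 1% DMSO; 16 h at room temperature; 1 μM atropine sets non-specific binding.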

T1 sequence (P07550 whole entry): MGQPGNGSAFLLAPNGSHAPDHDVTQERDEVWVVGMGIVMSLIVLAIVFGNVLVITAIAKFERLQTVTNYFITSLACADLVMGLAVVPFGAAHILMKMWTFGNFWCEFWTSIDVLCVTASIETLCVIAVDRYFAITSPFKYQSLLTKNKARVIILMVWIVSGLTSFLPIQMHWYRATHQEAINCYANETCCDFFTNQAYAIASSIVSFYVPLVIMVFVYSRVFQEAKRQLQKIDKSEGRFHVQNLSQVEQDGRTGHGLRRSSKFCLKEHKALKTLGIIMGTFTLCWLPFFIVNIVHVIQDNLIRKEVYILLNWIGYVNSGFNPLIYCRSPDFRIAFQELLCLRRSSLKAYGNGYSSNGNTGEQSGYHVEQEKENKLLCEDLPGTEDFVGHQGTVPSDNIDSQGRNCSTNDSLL

On to `O=C(c1ccc2ncsc2c1)N1CCOC2(CCN(Cc3cc(F)cc(CCNC[C@H](O)c4ccc(O)c5[nH]c(=O)sc45)c3)CC2)C1` [Example 132, (R)-7-(2-(3-((4-(benzo[d]thiazole-6-carbonyl)-1-oxa-4,9-diazaspiro[5.5]undecan-9-yl)methyl)-5-fluorophenethylamino)-1-hydroxyethyl)-4-hydroxybenzo[d]thiazol-2(3H)-one], for which the activation at 1 µM in experiment [1] came to 92%. The compound also returned an inhibition at 1 µM in experiment [2] of 85%.

As to `Cc1ccc2nc(C)c(C(=O)N3CCOC4(CCN(Cc5cc(F)cc(CCNC[C@H](O)c6ccc(O)c7[nH]c(=O)sc67)c5)CC4)C3)n2c1` [Example 143, (R)-7-(2-(3-((4-(2,6-dimethylimidazo[1,2-a]pyridine-3-carbonyl)-1-oxa-4,9-diazaspiro[5.5]undecan-9-yl)methyl)-5-fluorophenethylamino)-1-hydroxyethyl)-4-hydroxybenzo[d]thiazol-2(3H)-one], the activation at 1 µM in experiment [1] was 108%. Further, at 1 µM the inhibition in experiment [2] was 2%.

In the case of `O=C(c1cc(-c2ccccc2)n[nH]1)N1CCOC2(CCN(Cc3cc(F)cc(CCNC[C@H](O)c4ccc(O)c5[nH]c(=O)sc45)c3)CC2)C1` [Example 155, (R)-7-(2-(3-fluoro-5-((4-(3-phenyl-1H-pyrazole-5-carbonyl)-1-oxa-4,9-diazaspiro[5.5]undecan-9-yl)methyl)phenethylamino)-1-hydroxyethyl)-4-hydroxybenzo[d]thiazol-2(3H)-one], the activation at 1 µM in experiment [1] is 101%. In addition, the inhibition at 1 µM in experiment [2] is 4%.

With `Cc1ccc(C(=O)N2CCOC3(CCN(CCOc4ccc(CNC[C@H](O)c5ccc(O)c6[nH]c(=O)sc56)cc4)CC3)C2)o1` [Example 239, (R)-4-hydroxy-7-(1-hydroxy-2-(4-(2-(4-(5-methylfuran-2-carbonyl)-1-oxa-4,9-diazaspiro[5.5]undecan-9-yl)ethoxy)benzylamino)ethyl) benzo[d]thiazol-2(3H)-one], the activation at 1 µM in experiment [1] was 76%. Further, at 1 µM the inhibition in experiment [2] was 90%.

For `Cc1cccc(C(=O)N2CCOC3(CCN(CCOc4ccc(CNC[C@H](O)c5ccc(O)c6[nH]c(=O)sc56)cc4)CC3)C2)n1` [Example 237, (R)-4-hydroxy-7-(1-hydroxy-2-(4-(2-(4-(6-methylpicolinoyl)-1-oxa-4,9-diazaspiro[5.5]undecan-9-yl)ethoxy)benzylamino)ethyl) benzo[d]thiazol-2(3H)-one], the activation at 1 µM in experiment [1] was found to be 62%. In experiment [2], the inhibition at 1 µM is 46%.

For `O=C(c1cnc2ccccc2c1)N1CCOC2(CCN(Cc3cc(F)cc(CCNC[C@H](O)c4ccc(O)c5[nH]c(=O)sc45)c3)CC2)C1` [Example 172, (R)-7-(2-(3-fluoro-5-((4-(quinoline-3-carbonyl)-1-oxa-4,9-diazaspiro[5.5]undecan-9-yl)methyl)phenethylamino)-1-hydroxyethyl)-4-hydroxybenzo[d]thiazol-2(3H)-one], the activation at 1 µM in experiment [1] was found to be 98%. The compound further returned an inhibition at 1 µM in experiment [2] of 19%.

For `O=C(Cn1c(C(F)(F)F)nc2ccccc21)N1CCOC2(CCN(Cc3cc(F)cc(CCNC[C@H](O)c4ccc(O)c5[nH]c(=O)sc45)c3)CC2)C1` [Example 177, (R)-7-(2-(3-fluoro-5-((4-(2-(2-(trifluoromethyl)-1H-benzo[d]imidazol-1-yl)acetyl)-1-oxa-4,9-diazaspiro[5.5]undecan-9-yl)methyl)phenethylamino)-1-hydroxyethyl)-4-hydroxybenzo[d]thiazol-2(3H)-one], the activation at 1 µM in experiment [1] came out at 78%. Also, the inhibition at 1 µM in experiment [2] came to 1%.

As to `O=C(c1ccc2cc[nH]c2c1)N1CCOC2(CCN(Cc3cc(F)cc(CCNC[C@H](O)c4ccc(O)c5[nH]c(=O)sc45)c3)CC2)C1` [Example 140, (R)-7-(2-(3-((4-(1H-indole-6-carbonyl)-1-oxa-4,9-diazaspiro[5.5]undecan-9-yl)methyl)-5-fluorophenethylamino)-1-hydroxyethyl)-4-hydroxybenzo[d]thiazol-2(3H)-one], the activation at 1 µM in experiment [1] amounted to 109%. This compound also registered an inhibition at 1 µM in experiment [2] of 76%.

With `Cc1cc(C(=O)N2CCOC3(CCN(CCCCCCCCCNC[C@H](O)c4ccc(O)c5[nH]c(=O)sc45)CC3)C2)sc1C` [Example 222, (R)-7-(2-(9-(4-(4,5-dimethylthiophene-2-carbonyl)-1-oxa-4,9-diazaspiro[5.5]undecan-9-yl)nonylamino)-1-hydroxyethyl)-4-hydroxybenzo[d]thiazol-2(3H)-one], the activation at 1 µM in experiment [1] was 87%. This compound also gave an inhibition at 1 µM in experiment [2] of 91%.

For the compound `CCn1c(=O)n(CC(=O)N2CCOC3(CCN(Cc4cc(F)cc(CCNC[C@H](O)c5ccc(O)c6[nH]c(=O)sc56)c4)CC3)C2)c2ccccc21` [Example 135, (R)-7-(2-(3-((4-(2-(3-ethyl-2-oxo-2,3-dihydro-1H-benzo[d]imidazol-1-yl)acetyl)-1-oxa-4,9-diazaspiro[5.5]undecan-9-yl)methyl)-5-fluorophenethylamino)-1-hydroxyethyl)-4-hydroxybenzo[d]thiazol-2(3H)-one], the activation at 1 µM in experiment [1] was determined as 106%. The compound also gave an inhibition at 1 µM in experiment [2] of 1%.

For the compound `Cc1ccn(CC(=O)N2CCOC3(CCN(Cc4cc(F)cc(CCNC[C@H](O)c5ccc(O)c6[nH]c(=O)sc56)c4)CC3)C2)n1` [Example 153, (R)-7-(2-(3-fluoro-5-((4-(2-(3-methyl-1H-pyrazol-1-yl)acetyl)-1-oxa-4,9-diazaspiro[5.5]undecan-9-yl)methyl)phenethylamino)-1-hydroxyethyl)-4-hydroxybenzo[d]thiazol-2(3H)-one], the activation at 1 µM in experiment [1] was 98%. In addition, the inhibition at 1 µM in experiment [2] was found to be 67%.

In the case of `Cc1ccoc1C(=O)N1CCOC2(CCN(CCCCCCCCCNC[C@H](O)c3ccc(O)c4[nH]c(=O)sc34)CC2)C1` [Example 193, (R)-4-hydroxy-7-(1-hydroxy-2-(9-(4-(3-methylfuran-2-carbonyl)-1-oxa-4,9-diazaspiro[5.5]undecan-9-yl)nonylamino)ethyl)benzo[d]thiazol-2(3H)-one], the activation at 1 µM in experiment [1] amounted to 91%. Further, in experiment [2], testing at 1 µM gave an inhibition of 99%.

Consider `O=C(Cc1cccs1)N1CCOC2(CCN(CCCCCCCCCNC[C@H](O)c3ccc(O)c4[nH]c(=O)sc34)CC2)C1` [Example 185, (R)-4-hydroxy-7-(1-hydroxy-2-(9-(4-(2-(thiophen-2-yl)acetyl)-1-oxa-4,9-diazaspiro[5.5]undecan-9-yl)nonylamino)ethyl)benzo[d]thiazol-2(3H)-one], for which the activation at 1 µM in experiment [1] came to 81%. Also, in experiment [2], the inhibition at 1 µM came out at 95%.

`O=C(c1ccccc1)N1CCOC2(CCN(CCOc3ccc(CNC[C@H](O)c4ccc(O)c5[nH]c(=O)sc45)cc3)CC2)C1` [Example 223, (R)-7-(2-(4-(2-(4-benzoyl-1-oxa-4,9-diazaspiro[5.5]undecan-9-yl)ethoxy)benzylamino)-1-hydroxyethyl)-4-hydroxybenzo[d]thiazol-2(3H)-one]: the activation at 1 µM in experiment [1] was found to be 87%. For the same compound, testing at 1 µM in experiment [2] gave an inhibition of 56%.

As for `O=C(c1cc2cc(Cl)ccc2o1)N1CCOC2(CCN(Cc3cc(F)cc(CCNC[C@H](O)c4ccc(O)c5[nH]c(=O)sc45)c3)CC2)C1` [Example 182, (R)-7-(2-(3-((4-(5-chlorobenzofuran-2-carbonyl)-1-oxa-4,9-diazaspiro[5.5]undecan-9-yl)methyl)-5-fluorophenethylamino)-1-hydroxyethyl)-4-hydroxybenzo[d]thiazol-2(3H)-one], in experiment [1], the activation at 1 µM was 88%. The same compound returned an inhibition at 1 µM in experiment [2] of 16%.

Take `O=C(c1ccc(-c2ccccc2)cc1)N1CCOC2(CCN(Cc3cc(F)cc(CCNC[C@H](O)c4ccc(O)c5[nH]c(=O)sc45)c3)CC2)C1` [Example 169, (R)-7-(2-(3-((4-(biphenylcarbonyl)-1-oxa-4,9-diazaspiro[5.5]undecan-9-yl)methyl)-5-fluorophenethylamino)-1-hydroxyethyl)-4-hydroxybenzo[d]thiazol-2(3H)-one]: the “β2 (% effect at 1 μM)” value in experiment [1] (1 μM compound) was found to be 92%. For the same compound, in experiment [2] (1 µM), the “M3 (% inhibition at 1 μM)” value is recorded as −2%.

Consider `Cc1ccn(CC(=O)N2CCOC3(CCN(CCCCCCCCCNC[C@H](O)c4ccc(O)c5[nH]c(=O)sc45)CC3)C2)n1` [Example 204, (R)-4-hydroxy-7-(1-hydroxy-2-(9-(4-(2-(3-methyl-1H-pyrazol-1-yl)acetyl)-1-oxa-4,9-diazaspiro[5.5]undecan-9-yl)nonylamino)ethyl)benzo[d]thiazol-2(3H)-one], for which the activation at 1 µM in experiment [1] was 101%. Further, the inhibition at 1 µM in experiment [2] amounted to 97%.

As for `O=C(c1ccc(-c2cnco2)cc1)N1CCOC2(CCN(Cc3cc(F)cc(CCNC[C@H](O)c4ccc(O)c5[nH]c(=O)sc45)c3)CC2)C1` [Example 159, (R)-7-(2-(3-fluoro-5-((4-(4-(oxazol-5-yl)benzoyl)-1-oxa-4,9-diazaspiro[5.5]undecan-9-yl)methyl)phenethylamino)-1-hydroxyethyl)-4-hydroxybenzo[d]thiazol-2(3H)-one], the activation at 1 µM in experiment [1] was determined as 90%. Moreover, 1 µM produced 3% inhibition in experiment [2].

As to `O=C(Cc1ccc(-c2ccccc2)cc1)N1CCOC2(CCN(Cc3cc(F)cc(CCNC[C@H](O)c4ccc(O)c5[nH]c(=O)sc45)c3)CC2)C1` [Example 123, (R)-7-(2-(3-((4-(2-(biphenyl-4-yl)acetyl)-1-oxa-4,9-diazaspiro[5.5]undecan-9-yl)methyl)-5-fluorophenethylamino)-1-hydroxyethyl)-4-hydroxybenzo[d]thiazol-2(3H)-one], in experiment [1], the activation at 1 µM came out at 97%. Also, in experiment [2], the inhibition at 1 µM is 62%.
